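Protocol summary: plate cells (96-well), add compound at 5 concentrations, incubate 48 h, interpolate endpoints linearly. Here, GI50 denotes the concentration required for 50% inhibition of growth. TGI: concentration producing complete growth inhibition.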
How the values were obtained:
Assay in all cases: inhibition of tumour cell growth, NCI panel, 48 h
KM12 colon = system: KM12 colon
RXF 393 renal = system: RXF 393 renal
HCT-116 colon = system: HCT-116 colon
EKVX NSCLC = system: EKVX NSCLC
HCC-2998 colon = system: HCC-2998 colon
UACC-62 melanoma = system: UACC-62 melanoma
UO-31 renal = system: UO-31 renal
SF-268 CNS = system: SF-268 CNS

Row | Compound | GI50 (KM12 colon) [µM] | TGI (KM12 colon) [µM] | GI50 (RXF 393 renal) [µM] | TGI (RXF 393 renal) [µM] | GI50 (HCT-116 colon) [µM] | TGI (HCT-116 colon) [µM] | GI50 (EKVX NSCLC) [µM] | TGI (EKVX NSCLC) [µM] | GI50 (HCC-2998 colon) [µM] | TGI (HCC-2998 colon) [µM] | GI50 (UACC-62 melanoma) [µM] | TGI (UACC-62 melanoma) [µM] | GI50 (UO-31 renal) [µM] | TGI (UO-31 renal) [µM] | GI50 (SF-268 CNS) [µM] | TGI (SF-268 CNS) [µM]
1 | CCN1CCN(c2nc(C)cc(N(CCNc3ccnc4cc(Cl)ccc34)Cc3ccc4c(c3)OCO4)n2)CC1 | 3.97 | 15.2 | 1.44 | 3.08 | 1.38 | 3.51 | 3.14 | 13.9 | 2.03 | 3.96 | 1.85 | 3.38 | 1.36 | 2.72 | 2.09 | 5.81
2 | CC[C@H](Nc1ncnc2nc[nH]c12)c1oc2ccccc2c(=O)c1-c1cccc(F)c1 | 23.7 | > 100 | 13.2 | 78.2 | 25.5 | > 100 | 31.8 | > 100 | 35.7 | > 100 | 10.5 | 69 | 5.93 | 58 | 22.6 | > 100
3 | C=C(Br)C(C)(Br)CCC(Br)C(C)(C)Cl (stereo unspecified) |  | 32 |  | 37.5 |  | 25 |  | 51.3 |  | 32.7 |  | 40.7 |  | 32 |  | 36.1
4 | COC1=CC(=O)C(C2CC(=O)c3c(O)cc(O)cc3O2)=CC1=O (stereo unspecified) |  | 32.2 |  | 34.8 |  | 32.9 |  | 30.8 |  | 32.1 |  | 31.3 |  | 32.2 |  | 38.7
5 | Cn1cnc([N+](=O)[O-])c1S(=O)(=O)Oc1cccc2ccccc12 | 10.4 | 31.4 | 2.3 | 4.3 | 2.1 | 5.11 | 13.9 | 34.8 | 13.1 | 26.6 | 7.12 | 20.8 | 1.4 | 4.33 | 7.06 | 33.4
6 | Cc1cc(/C=C/c2ccc3cc(N(C)C)ccc3[n+]2C)c(C)n1-c1ccccc1 | 0.158 | 0.843 | 0.199 | 0.987 | 0.0908 | 2.69 | 0.102 | 3.9 | 0.203 | 2.64 | 0.277 | 1.27 | 0.748 | 4.3 | 0.215 | 2.87
7 | CC(C)[C@H]1COC(=O)N1[C@@H]1C(=O)N([C@@H](CCC(=O)N2CCN(C3CCCC3)CC2)C(=O)N[C@@H]2CCCc3ccccc32)[C@@H]1/C=C/c1cccc(Br)c1 | 2.17 | 5.83 | 1.59 | 3.47 | 1.57 | 2.99 | 3.01 | 15.2 | 1.83 | 3.63 | 1.8 | 3.58 | 1.49 | 3.04 | 1.11 | 2.83
8 | CCCCCCCC(=O)SCC/C=C/[C@@H]1CC(=O)NCc2cc(ccn2)C2=N[C@@](C)(CS2)C(=O)N[C@@H](C(C)C)C(=O)O1 | 0.0169 | 2.41 | 0.0128 | 0.0822 | 0.00468 | 0.0466 | 0.0376 | > 33.3 | 0.0256 | 0.245 | 0.0062 | 0.0507 | 0.0264 | 0.426 | 0.0387 | > 9.59
9 | NC1(C(=O)OCc2ccccc2)CCCC1 |  | > 100 |  | 33.7 |  | 41.8 |  | 59.3 |  | 76.7 |  | 37 |  | 43.3 |  | 31.4
10 | COc1cc(/C=C/c2cc(O)c(C(C)=O)c(O)c2)cc2c1O[C@]1(C)CC[C@@H](O)C(C)(C)[C@H]1C2 | 5.41 | 45.4 | 1.7 | 6.06 | 4.56 | 22 | 13.1 | 72.9 | 6.7 | 32.4 | 2.89 | 11.5 | 3.22 | 65.5 | 5.86 | 55.2
11 | CCOC(=O)c1cc2nc3ccccc3c(=O)n2c2ccccc12 |  | > 10 |  | > 10 |  | > 10 |  | > 10 |  | > 10 |  | > 10 |  | > 10 |  | > 10
12 | Cc1cc(O)c(/C=N/C(=S)NCc2ccccc2)c(=O)o1 |  | > 100 |  | > 100 |  | > 100 |  | > 100 |  | > 100 |  | > 100 |  | > 100 |  | > 100
13 | COc1cc(NCc2ccc3oc(=O)c(-c4ccccc4)nc3c2)cc(OC)c1OC |  | > 10 |  | > 10 |  | > 10 |  | > 10 |  | > 10 |  | > 10 |  | > 10 |  | > 10
14 | O=C(/C=C/c1ccncc1)c1cc(Cl)ccc1O | 15.7 | 32.5 | 18.3 | 33.1 | 14.6 | 27.9 | 17.2 | 54.5 | 13.5 | 28.4 | 15.9 | 37.3 | 11 | 26.7 | 22.1 | 63.7

From PubChem BioAssay (NCI)
